Experimental data: US8952025B2, “Multifunctional radical quenchers and their uses” (Arizona Board of Regents, A Body Corporate of the State of …, priority 2010, dated 2015)
Entries after “also recorded” stand apart in the source; their conditions may differ.

Columns and labels:
[1] = C11-BODIPY581/591 oxidation lipid peroxidation assay in liposomes; conditions: for quenching of lipid peroxidation (retention of C11-BODIPY581/591 fluorescence): 10 mM AAPH, phospholipid liposomes, phosphate buffer, 40° C.
Description: To overcome the problem of spectral overlap using cis-parinaric acid, a fluorescence assay for lipid peroxidation using a lipophilic probe belonging to the BODIPY class of fluorescent dyes was used. C11-BODIPY^581/591 (4,4-difluoro-5(4-phenyl-1,3-butadienyl)-4-bora-3a,4a-diaza-s-indacene-3-propionic acid) fluorescence shifts from red to green upon oxidation. C11-BODIPY^581/591 (Molecular Probes, Eugene, Oreg., USA) stock solution concentrations were determined by measuring the absorption of C11-BODIPY^581/591 at 582 nm using a molar extinction coefficient of 140,000 mol^−1 cm^−1(R. P. Haugland, (1999) Handbook of Fluorescent Probes and Research Chemicals, Molecular Probes, Inc., Eugene, Oreg.). The lipid peroxidation inducer 2,2′-Azobis (2-amidino-propane dihydrochloride) (AAPH) and the antioxidant compound α-tocopherol were obtained from Sigma (St. Louis, Mo., USA). Phospholipid bilayers were prepared from 1-stearoyl-2-oleoyl-phosphatidylcholine (SOPC) and 1,2-dilinoleoyl-phosphatidylcholine (DLPC) and were purchased from Avanti® polar lipids, INC (Alabaster, Ala., USA).
Phosphotidylcholine (PC) liposomes were prepared as described before (Guey-Shuang et al. (1982) Lipids. 17, 403-413). Briefly, DLPC (25 mg) and SOPC (25 mg) were dissolved in chloroform and the solvent was removed by nitrogen evaporation (˜2 hours to give a thin film of PC in a round bottom flask. The lipid film was hydrated with 50 mL of 10 mM Tris-HCl (pH 7.4), 100 mM KCl, shaken and sonicated for 15 seconds. The liposomes obtained were filtered several times through 0.2 μM membrane filter.
C11 BODIPY^581/591 was incorporated into liposomes and oxidized by peroxyl radicals derived from the decomposition of AAPH in presence and absence of the compounds. […] Liposomes were pre-incubated for 10 min with 200 nM C11 BODIPY^581/591 to allow their incorporation into the lipid phase of the liposomes. After the addition of AAPH (10 mM) the decay of red fluorescence was followed at λ exc=570 nm, λ em=600 nm. Relative fluorescence units were normalized to 100% intensity. Results obtained were verified by repeating experiments N=3 independent experiments.

[2] = test system: CEM cells; test: Reactive oxygen species (ROS) assay, DCFH-DA, DEM-treated cells; format: cell-based, human
[3] = test system: CEM leukemia cells; test: Mitochondrial membrane potential (Δψm) assay, TMRM, FACS; format: cell-based, human; conditions: for preserving mitochondrial membrane potential Δψm: 1, 2.5 or 5 μM
Description: Measurement of Mitochondrial Membrane Potential (Δψm)(FACS). For the determination of Δψm, CEM leukemia cells were pre-treated with or without the test compounds. The cells were treated with 5 mM DEM for 120 minutes, collected by centrifugation at 300×g for 3 minutes and then washed twice with phosphate buffered saline. The cells were re-suspended in HSSB buffer and incubated at 37° C. in the dark for 15 minutes with 250 nM TMRM (a cationic dye which accumulates within mitochondria in accordance with the Δψm Nernst potential). Cells were collected by centrifugation at 300×g for 3 minutes and then washed twice with phosphate buffered saline. The samples were analyzed immediately by flow cytometry using 488 nm excitation laser and the FL2-H channel. The results obtained were verified in three independent experiments. The protonophore FCCP (30 μM) was used to dissipate the chemiosmotic proton gradient (ΔμH^+) and served as a control for loss of Δψm. In each analysis, 10,000 events were recorded.

[4] = pretreatment 0.5, 1 or 2.5 μM overnight, DEM

| Structure (SMILES) | quenching of lipid peroxidation (retention of C11-BODIPY581/591 fluorescence) [1] | protection against lipid peroxidation ([1]; compound 15 μM, AAPH, liposomes) | protection against ROS production (DCF fluorescence) ([2]; compound 1 μM, 5 mM DEM) | protection against ROS production (DCF fluorescence) ([2]; compound 5 μM, 5 mM DEM) | suppression of ROS production (DCF fluorescence) ([2]; pretreatment 0.5, 1 or 5 μM, DEM) | maintaining mitochondrial membrane potential Δψm [3, 4] | suppression of ROS (DCF fluorescence) ([2]; 1 μM, pretreatment 1, 3 or 6 hours, 5 mM DEM) | protection against ROS production (DCF fluorescence) ([2]; 5 μM, pretreatment 4 or 24 h) | preserving mitochondrial membrane potential Δψm ([3]; 4-hour pretreatment) | preserving mitochondrial membrane potential Δψm ([3]; 24-hour pretreatment) | maintaining mitochondrial membrane potential Δψm ([3]; FIG. 13, 4 or 24 hours pretreatment) |
| --- | --- | --- | --- | --- | --- | --- | --- | --- | --- | --- | --- |
| Cc1nc(N(C)C)nc(CCCCCCCCCCO)c1O [Compound A, 2-N,N-dimethylamino-5-hydroxy-4-methyl-6-(10-hydroxydecyl)-pyrimidine] | more effective in preventing lipid peroxidation than idebenone and its reduced form (Idebenol); also recorded: much more effective than idebenone and its reduced form in preventing lipid peroxidation | complete protection | complete protection | significantly more effective in blocking diethylmaleate-induced ROS production compared to idebenone or its reduced form (Idebenol); also recorded: protected the cells | more effective than idebenone at all tested concentrations; also recorded: more effective than idebenone in suppressing ROS in a dose-dependent fashion | clearly more effective in maintaining mitochondrial membrane potential; also recorded: very favorable properties | – | – | – | – | – |
| Cc1nc2c(c(CC[C@](C)(O)CCC[C@H](C)CCC[C@H](C)CCCC(C)C)c1O)CCN2C [Compound C, 4-((3R,7R,11R)-3-hydroxy-3,7,11,15-tetramethylhexadecyl)-1,6-dimethyl-2,3-dihydro-1H-pyrrolo[2,3-b]pyridine-5-ol] | prevent lipid peroxidation in a concentration-dependent fashion with scavenging activity much higher than α-tocopherol; also recorded: prevents lipid peroxidation in a concentration-dependent fashion with scavenging activity much greater than that of α-tocopherol and compound C redox core; also recorded: much more effective than α-tocopherol in quenching lipid peroxidation | – | – | more effective in protecting glutathione depleted CEM cells than α-tocopherol; also recorded: protected the cells | – | – | clearly more effective than α-tocopherol in suppressing ROS | better protection against ROS production than α-tocopherol after a 4-hour preincubation | more effective than tocopherol in preserving mitochondrial membrane potential | comparable to tocopherol | superior to tocopherol in maintaining mitochondrial membrane potential |
| COC1=C(OC)C(=O)C(CCCCCCCCCCO)=C(C)C1=O [idebenone, reference compound] | – | – | – | only limited effect | – | less effective in this regard | – | – | – | – | – |
| Cc1c(C)c2c(c(C)c1O)CC[C@@](C)(CCC[C@H](C)CCC[C@H](C)CCCC(C)C)O2 [α-tocopherol, reference compound] | – | – | – | ineffective | – | – | – | – | – | – | – |
